The test system of assay [1] is IRE1 L577D, V586D, A597D, L644D, L695D, E651A. The experiment in a line: NanoBRET with IRE1 point mutants disrupting IRE1:G6374 interactions. Conditions: each of L577D, HEK293T. The assay is classed as cell-based. As to the method: 8 × 10^5 293T cells per well were seeded in 6-well plates (Costar, #3516) and incubated at 37 °C, 5% CO2 for 6 h. A mixture of 0.2 µg ERN1 (IRE1)-NanoLuc Fusion Vector (Promega, NV1321), 2 µg HaloTag-VHL Fusion Vector (Promega, N2731), 6 µl FuGENE HD Transfection Reagent (Promega, E2311), and 100 µL Opti-MEM I reduced serum medium (Gibco, #31985062) per well was incubated at room temperature for 20 min before adding to cells. For expression of IRE1 mutants, site-directed mutagenesis was performed using the ERN1-NanoLuc Fusion Vector as the DNA template, and the transfection mixture was prepared in the same way as WT IRE1. After 18 h, cells from 6-well plates were trypsinized, resuspended in Opti-MEM I reduced serum medium, and reseeded into 96-well plates (Costar, #3917), with or without the addition of HaloTag NanoBRET 618 Ligand (Promega, G9801). After 18 h of incubation, a titration of G6374 (dilutions made in Opti-MEM I reduced serum medium) was added to the cells. After 2 h of G6374 treatment, NanoBRET Nano-Glo Substrate (Promega, N1571) was added to cells. The 96-well plates were imaged by GloMax Discover Microplate Reader (Promega, GM3000) with the default “BRET: NanoBRET 618” protocol (Donor: 450 BP; Acceptor: 600 LP; Integration: 0.3 s). Data analysis was performed according to the user manual.

The next assay addresses VCB (VHL:EloC:EloB) (Homo sapiens, UniProt P40337). The experiment in a line: Surface plasmon resonance, binary interaction with VCB. The assay is classed as binding. Conditions: SPR, immobilised VCB, 20 °C, 1 to 1 kinetic model. The procedure:
(§1) All SPR experiments in this paper were recorded on a Biacore S200 instrument; all protein captures and data collection were at 20 °C.
(§2) For binary interactions with G6374: a Xantec SAHC 200 M (streptavidin) chip was inserted into the instrument and primed into running buffer [50 mM HEPES (pH 7.4), 150 mM NaCl, 0.001% Tween 20, 0.2% PEG3350, 0.25 mM TCEP, and 2% DMSO]. Biotinylated human IRE1.KR protein was captured on FC2 to 2-4000 RU, biotinylated VHL in complex with Elongin B (VHL/EloB) was captured on FC4 to 1-2000 RU, data were collected, and all referenced to FC1. Affinity for G6374 was measured using a titration series, injected from low to high with an 8-point, 2-fold dilution dose response with a top concentration of 0.5 μM in both single cycle (single cycle kinetics (SCK)) and multi cycle kinetics (MCK) formats. For MCK experiments, an association time of 45 s and a dissociation time of 200 s with a flow rate of 50 μL/min. For SCK experiments, an association time of 45 s and a dissociation time of 2000 s with a flow rate of 50 μL/min were used. All data were analyzed using Insight software (Cytiva) using a 1 to 1 kinetic binding model.

A further assay concerns the target T1, human IRE1.KR (Homo sapiens, UniProt O75460).
T1 construct: Recombinant human IRE1.KR (G547-L977) was purified using an established protocol; His6 (with TEV protease cleavage site) (N, cleaved yes); made in house; host or cells: Sf9
The experiment in a line: Surface plasmon resonance, binary interaction with IRE1.KR. The assay is classed as binding. To be noted: SPR, immobilised IRE1.KR, 20 °C, 1 to 1 kinetic model. As to the method: as §1, §2

Chain of VCB (VHL:EloC:EloB) (P40337 whole entry): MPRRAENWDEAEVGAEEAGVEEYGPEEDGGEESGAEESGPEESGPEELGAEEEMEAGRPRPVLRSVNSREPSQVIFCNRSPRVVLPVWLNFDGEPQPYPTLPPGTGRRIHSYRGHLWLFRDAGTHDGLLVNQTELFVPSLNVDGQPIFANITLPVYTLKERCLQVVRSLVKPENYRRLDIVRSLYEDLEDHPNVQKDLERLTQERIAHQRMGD
Chain of VCB (VHL:EloC:EloB) (Q15370 whole entry partner): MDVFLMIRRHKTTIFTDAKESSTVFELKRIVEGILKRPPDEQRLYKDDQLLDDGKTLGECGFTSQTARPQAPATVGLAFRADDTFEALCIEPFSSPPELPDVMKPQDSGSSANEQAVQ
Chain of VCB (VHL:EloC:EloB) (Q15369 whole entry partner): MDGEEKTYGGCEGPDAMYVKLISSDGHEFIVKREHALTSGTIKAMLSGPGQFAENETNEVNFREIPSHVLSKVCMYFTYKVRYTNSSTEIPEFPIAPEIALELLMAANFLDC
T1 sequence (O75460 547-977): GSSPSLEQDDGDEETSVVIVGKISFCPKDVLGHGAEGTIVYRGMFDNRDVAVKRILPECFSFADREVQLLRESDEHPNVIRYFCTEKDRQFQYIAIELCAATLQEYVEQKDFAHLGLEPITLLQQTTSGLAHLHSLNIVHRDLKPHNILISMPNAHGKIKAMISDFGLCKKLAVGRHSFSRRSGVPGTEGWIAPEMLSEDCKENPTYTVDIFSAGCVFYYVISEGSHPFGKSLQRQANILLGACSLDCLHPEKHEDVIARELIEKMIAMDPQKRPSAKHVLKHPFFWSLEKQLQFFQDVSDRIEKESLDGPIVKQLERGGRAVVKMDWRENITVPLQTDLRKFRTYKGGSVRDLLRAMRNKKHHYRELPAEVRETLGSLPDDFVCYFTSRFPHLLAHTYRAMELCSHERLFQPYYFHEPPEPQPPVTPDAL

`Cc1ncsc1-c1ccc(CNC(=O)[C@@H]2C[C@@H](O)CN2C(=O)[C@@H](NC(=O)CCCCN2CCN([C@H]3CC[C@H](Nc4ncc5ccc(=O)n(C(C)C)c5n4)CC3)CC2)C(C)(C)C)cc1` [G6374]: the “G6374-induced IRE1:VHL interaction and IRE1 degradation with IRE1 point mutants” value in assay [1] is “abolish the G6374-induced interaction between IRE1 and VHL”. For the same molecule, the Kd at VCB (VHL:EloC:EloB) turned out to be 0.0902 µM; at human IRE1.KR, 0.00056 µM. Besides, the kd at VCB (VHL:EloC:EloB) was 0.0477 s⁻¹; on human IRE1.KR it was 0.0025 s⁻¹. The kon on VCB (VHL:EloC:EloB) (read-out: ka) was determined as 514000 M⁻¹ s⁻¹; at human IRE1.KR (read-out: ka), 4.95e+06 M⁻¹ s⁻¹.

The record behind these values is publication PMC12749748, “Chemically-induced degradation of the endoplasmic-reticulum stress sensor IRE1 by a VHL-recruiting chimera” (Nature Communications, 2025).
